Assay type in all cases: in vivo, mouse
The test system of test [1] is CC10-rtTA-VEGF165 transgenic mice. Kind of test: Lung tissue inflammation, histologic analysis. Particulars: Tg+ mice, pretreatment, vs vehicle. On the procedure:
The lungs were removed en bloc as described elsewhere herein, inflated at 25 cm pressure with PBS containing 0.5% low melting point agarose gel, fixed in Streck solution (Streck Laboratories, La Vista, Nebr.), embedded in paraffin, sectioned and stained. Hematoxylin and eosin and PAS stains were performed in the Research Histology Laboratory of the Department of Pathology at the Yale University School of Medicine. Pulmonary hemorrhage was evaluated by quantitating BAL red blood cell number with a Coulter counter (Beckman Coulter).

For test [2] the test system is unchanged. The experiment in a line: VEGF-induced angiogenesis, anti-CD31 immunohistochemistry and vessel area density. Particulars: for VEGF-induced angiogenesis (vascular density, appearance, sprouting): pretreatment starting 1 day before dox, vs vehicle. On the procedure: The CC10-rtTA-VEGF165 transgenic mice used in this study were generated and used as described previously (Lee et al., 2004, Nature Medicine 10:1095-103), which reference is incorporated herein in its entirety. These animals were housed under barrier conditions in the animal facility at Yale University School of Medicine. In these experiments 6-8 week old transgenic (Tg+) animals and their transgene negative littermate controls (Tg−) were randomized to receive water with doxycycline (dox) (0.5 mg/ml) or normal water. Two weeks later they were sacrificed and the VEGF-induced phenotype was evaluated as described below (Lee et al., 2004, Nature Medicine 10:1095-103).
To define the effects of these agents on the tissue responses induced by VEGF, two experimental procedures were used. In the first, a pretreatment protocol was used. In these experiments the noted innate immunity agonist ([…] unless otherwise indicated) or its vehicle control (PBS) were administered intranasally and aspirated into the lungs of randomized Tg+ and Tg− mice starting one day before the Dox water treatment. The doses were administered to the mice every other day during the 2 week doxyxycline (dox) treatment interval.
To determine if the innate immunity agonists altered established VEGF-induced tissue responses, a “post treatment” protocol was used in selected experiments. In these experiments the innate immunity agonist was administered 2 days or 14 days after the doxycycline and VEGF-induced responses were evaluated 2 weeks later.
To define the effects of Poly(I:C) a number of protocols were employed. In most experiments, a pretreatment-2 week protocol was employed. In these experiments, WT and Tg+ mice were treated with Poly(I:C) (30 μg in 50 lambda unless otherwise indicated; Amersham Biosciences, N.J.) or vehicle control via nasal aspiration and transgene activation was accomplished via the administration of dox (0.5 mg/ml) in the animal's drinking water 24 hours later. The Poly(I:C) was administered every other day and the dox was administered continuously for up to 2 weeks.
In selected experiments a pretreatment protocol and shorter treatment interval was employed. In these experiments, WT and Tg+ mice were treated with Poly(I:C) (30 μg/mouse/dose in 50 μl) or vehicle control via nasal aspiration and transgene activation was accomplished with dox 24 hours later. The animals were then randomized to not receive or receive one additional dose of Poly(I:C) 24 hours later and dox was administered continuously during this 2 week interval.
Lastly, in selected experiments post-transgene activation protocols were employed. In these experiments dox was administered for 2 days or 2 weeks. The Poly(I:C) was then administered via intranasal aspiration every other day for 2 weeks as disclosed elsewhere herein. In selected pre-treatment and post-transgene activation experiments, unmethylated CpG (CpG-B) (Keck Center, Yale University) was also employed at similar doses. At the end of these intervals, assessments of angiogenesis (anti-CD31 immunohistochemistry), vascular permeability (Evan's blue dye extravasation, wet to dry lung weight measurements, BAL protein concentration), BAL and tissue inflammatory cell infiltration and mucus metaplasia (periodic acid-Schiff (PAS) staining, MUC5AC immunoblotting) were undertaken. In all cases experiments were designed to compare Tg− and Tg+ mice on normal water and Tg− and Tg+ mice on dox water.

Test [3] relates to VEGFR2. Kind of test: VEGF receptor expression on dendritic and endothelial cells, FACS. The following applies: Tg+ mice, pretreatment-2 week protocol. On the procedure: (§1) Cell preparations were obtained from Tg− and Tg+ mice that had been randomized to receive Poly(I:C) or its vehicle control according to the pretreatment-2 week protocol described above. They were then incubated with antibodies against CD45, CD11c, MHCII, CD31, VEGFR1 (R & D Systems), VEGFR2 (Biolegends, San Diego, Calif. USA) or VEGFR3 (R&D Systems). FACS analysis was used to define the levels of receptor expression on dendritic cells (CD45+, CD11c+, MHCII+) and endothelial cells (CD45−, CD31+).

Test [4] has as its system VEGFR3. Described as above. Particulars: Tg+ mice, pretreatment-2 week protocol. On the procedure: as §1
In test [5] the test system is VEGFR1. The test is described as above. Particulars: Tg+ mice, pretreatment-2 week protocol. Here is the method:
as §1

“Also recorded” adds a separate entry of the source.

Regarding “polyinosinic-polycytidylic acid [Poly(I:C)]”, the “inflammatory cell accumulation in lung tissues” value in test [1] was “lower levels of inflammation”. The “VEGF-induced vascular responses, delayed administration” value in test [2] (Tg+ mice, given 2 days (48 hours) or 14 days (2 weeks) after transgene activation with dox) was “significant decrease; also recorded: significant inhibition”. Also, the “VEGF-induced angiogenesis (vascular density, appearance, sprouting)” value in test [2] (Tg+ mice) is reported as “inhibited”; in test [2] (Tg+ mice, listed as poly(I:C)) it was “markedly decreased”. In test [2] (VEGF-induced tissue responses, TLR agonist administration, PBS control 43), the “Vascularity (%)” value turned out to be 28.7%. Moreover, in test [2] (pretreatment), the “lowest dose with significant inhibition of VEGF-induced angiogenesis” value stood at 5 µg. Further, the “dose with maximal inhibition of VEGF-induced angiogenesis” value in test [2] (pretreatment, highest dose tested) amounted to 30 µg. Further, the “vascular density after as little as 1 dose” value in test [2] (shorter treatment interval, 1 dose before dox) is listed as “significant decrease”. Besides, the “expression of VEGFR2 on dendritic cells and endothelial cells” value in test [3] is “not”. For the same substance, the “expression of VEGFR3 on dendritic cells and endothelial cells” value in test [4] is given as “not”. The “expression of VEGFR1 on dendritic cells and endothelial cells” value in test [5] is on record as “inhibited”.

The values are drawn from patent US20110245323A1, “RIG-Like Helicase Innate Immunity Inhibits VEGF-Induced Tissue Responses” (Yale University, priority 2006, published 2011).
